In ChEMBL document CHEMBL3137667, “[Drug-induced liver injury; fourteenth updated edition of the bibliographic database of liver injuries and related drugs]” (Gastroenterol Clin Biol, 2004):

What was measured:
[1] = human
[2] = Presence of at least one case with successful reintroduction. [column 'REINT' in source]; conditions: human
[3] = human; remark: listed apart in the source
[4] = Times to onset, minimal and maximal, observed in the indexed observations. [column 'DELAI' in source]; conditions: human
[5] = Highest frequency of acute liver toxicity observed during clinical trials, expressed as a percentage. [column '% AIGUE' in source]; conditions: human
[6] = Comments (NB not yet translated). [column 'COMMENTAIRES' in source]; conditions: human
[7] = Proposed mechanism(s) of liver damage. [column 'MEC' in source]; conditions: human
[8] = human; remark: listed apart in the source
[9] = human; remark: listed apart in the source
[10] = human; remark: listed apart in the source
[11] = human; remark: listed apart in the source
[12] = human; remark: listed apart in the source
[13] = human; remark: listed apart in the source
[14] = human; remark: listed apart in the source
[15] = human; remark: listed apart in the source
[16] = Highest frequency of moderate liver toxicity observed during clinical trials, expressed as a percentage. [column '% BIOL' in source]; conditions: human
[17] = human, serum
[18] = human, serum; remark: listed apart in the source
[19] = human, serum, 4383 h
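For Hepatotoxicity (association with vascular disease) in this document: count of indexed literature references reporting vascular liver injury in humans, e.g. peliosis hepatitis, hepatic veno-occlusive disease or Budd-Chiari syndrome.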
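For Hepatotoxicity (benign tumour) in this document: value is a count of indexed literature references citing a benign tumour confirmed by histopathology.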
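For Hepatotoxicity (choleostasis) in this document: human cholestatic liver injury, shown by histopathology or by peak ALT or AST elevation over alkaline phosphatase ratio below 2, value counts indexed literature reports.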
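For Hepatotoxicity (chronic liver disease) in this document: chronic liver injury confirmed by histopathology or persistently raised serum aminotransferase activity beyond 6 months, value given as the count of indexed literature references.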
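For Hepatotoxicity (cirrhosis) in this document: value is a count of indexed literature references reporting cirrhosis confirmed by histopathology.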
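For Hepatotoxicity (cytolytic) in this document: human cytolytic liver injury, shown by histopathology or by a ratio above 5 of peak ALT or AST elevation to alkaline phosphatase elevation, value counts indexed references.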
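For Hepatotoxicity (granulomatous hepatitis) in this document: value is a count of indexed literature references reporting granulomatous liver disease confirmed by histopathology.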
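For Hepatotoxicity (malignant tumour) in this document: malignant tumour confirmed by histopathology, value gives the count of indexed literature references reporting it.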
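For Hepatotoxicity (severe hepatitis) in this document: human clinical data: severe hepatitis, meaning potentially life-threatening liver failure or clinically observed cases, the value counts how many indexed literature references report it.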
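For Hepatotoxicity (steatosis) in this document: steatosis confirmed by histopathology, value is the count of indexed references.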

Molecule	Hepatotoxicity (severe hepatitis) [1]	Hepatotoxicity (successful reintroduction) [2]	Hepatotoxicity (benign tumour) [3]	Hepatotoxicity (time to onset) [4]	Hepatotoxicity (acute) [5]	Hepatotoxicity (comment) [6]	Hepatotoxicity (mechanism) [7]	Hepatotoxicity (malignant tumour) [8]	Hepatotoxicity (granulomatous hepatitis) [9]	Hepatotoxicity (association with vascular disease) [10]	Hepatotoxicity (animal toxicity known) [11]	Hepatotoxicity (steatosis) [12]	Hepatotoxicity (cytolytic) [13]	Hepatotoxicity (choleostasis) [14]	Hepatotoxicity (cirrhosis) [15]	Hepatotoxicity (moderate) [16]	Hepatotoxicity (moderate) [17]	Hepatotoxicity (acute) [18]	Hepatotoxicity (chronic liver disease) [19]
CN(C)CCC=C1c2ccccc2CCc2ccccc21 [AMITRIPTYLINE]	6	yes	0	1 week - 10 months	3%	CHOLESTASE_PROLONGEE CHOLANGITE	Allergic	0	0	0	yes	0	9	12	0	26%	11	18	0
ALDESLEUKIN	1	yes	0	1 day - 2 years	35.7%	CHOLECYSTITE PERICHOLANGITE	Allergic, Dose-dependant	0	0	0	yes	1	6	6	1	100%	58	14	0
CN(C)c1ccc(O)c2c1C[C@H]1C[C@H]3[C@H](N(C)C)C(O)=C(C(N)=O)C(=O)[C@@]3(O)C(O)=C1C2=O [MINOCYCLINE]	8	yes	0	4 days - 12 years	0%	AC_ANTI-N/-ADN/-pNCA REACTIVATION_VH-6	Allergic, Dose-dependant, Toxic Metabolite	0	1	0	yes	2	36	2	0	41.7%	17	48	11
CO[C@H]1/C=C/O[C@@]2(C)Oc3c(C)c(O)c4c(O)c(c(/C=N/N5CCN(C)CC5)c(O)c4c3C2=O)NC(=O)/C(C)=C\C=C\[C@H](C)[C@H](O)[C@@H](C)[C@@H](O)[C@@H](C)[C@H](OC(C)=O)[C@@H]1C [RIFAMPIN]	6	yes	0	2 days - 14 months	7.3%	AC_ANTI-N I/ISONIAZIDE/TROLEANDOMYCINE	Allergic, Dose-dependant	0	0	0	yes	0	14	19	0	23%	22	38	0
